Experimental data: paper PMC6973020, “Quinoline‐Conjugated Ruthenacarboranes: Toward Hybrid Drugs with a Dual Mode of Action” (Chemmedchem, 2019)
“Also recorded” adds a separate entry of the source.

How the values were obtained:
[1] = Stability in water‐containing DMSO‐d6 (NMR spectroscopy); assay type: physicochemical; conditions: in air, 1H and 11B{1H} NMR, over one month
Procedure: NMR spectroscopy. To determine the stability in biocompatible organic solvents, 3–5 (each ca. 3 mg) were dissolved in water‐containing DMSO‐d6 (0.6 mL) in air at room temperature, and periodically frozen (4–5 °C) and unfrozen. The solutions were analyzed with ^1H and ^11B{^1H} NMR spectroscopy over a period of one month.

[2] = tested on: MCF‐7 cells; test: AO staining (acidic vacuoles, autophagy), MCF‐7; assay type: cell-based, human; conditions: MCF‐7, 20 μM, 72 h
Procedure: Flow cytometry. For gaining better insights into the mechanisms of action of the ruthenium complexes, MCF‐7 and LN229 cells incubated with an IC50 dose of 3 or 4, were analyzed via flow cytometry. Several staining protocols were carried out in parallel, in independent experiments: i) AnnV/PI for the detection of apoptotic cell death, ii) AO for the detection of acidic vacuoles, iii) ApoStat for checking caspase activation, iv) CFSE for detecting interference with cellular proliferation, and v) DAPI for the detection of morphological signs of apoptosis. Untreated cells or cells treated only with BSA (control) were also measured, as reference for BSA‐free and BSA‐containing drug formulations, respectively. […] Channels FL1 (green emission), FL2 (orange emission) and/or FL3 (dark red emission) were used for fluorescence detection, according to the specific staining agent. Sideward Scatter (SSC) for MCF‐7 cells treated with 4 or BSA−4 was also analyzed, with respect to the control, for detection of shifts of cell granularity. […]
FCS, 2 mM L‐glutamine, 0.01% sodium pyruvate and antibiotics, at 37 °C in a humidified atmosphere with 5% CO2. […] Cells were counted and seeded in 96‐well plates and incubated overnight, as described above. […]
Staining Protocols for Flow Cytometric Analysis. […] Finally, cells were washed in PBS, resuspended in PBS (or AnnV‐binding buffer for AnnV/PI), and analysed. […]

Substance	stability in water‐containing DMSO‐d6 solution [1]	autophagy (AO staining) [2]
closo ‐[3‐(η^6‐p‐Cymene)‐1‐(quinolin‐8‐yl‐acetate)‐3,1,2‐RuC2B9H10] [Compound 4]	stable; also recorded: sufficient chemical stability	suppressed autophagy
closo‐ [Compound 3, closo‐ [3‐(η^6‐p‐Cymene)‐1‐(CH2COOH)‐3,1,2‐RuC2B9H10]]	stable; also recorded: sufficient chemical stability	strongly amplified autophagic processes
